US12187742B2 (XRAD Therapeutics, Inc., priority 2018, dated 2025)
Structures can show the parent of a compound that is named as a salt.

Tests used:
ATM = ATM (Homo sapiens (Human), UniProt Q13315); experiment: ATM in Cell Western Assay (pKAP1 in etoposide-treated MCF-7 cells); format: cell-based; settings: pKAP1 in etoposide-treated MCF-7 cells
In short: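 Cells received compounds in a 10-dose, 3-fold series from a 1 μM final top concentration, then 100 μM etoposide, for 1 hr at 37° C. They were then fixed with paraformaldehyde and permeabilized with 0.1% Triton X-100. After immunostaining, plates were scanned on an infrared imager.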

DNA-PK = DNA-PK (Homo sapiens (Human), UniProt P78527); experiment: DNA-PK Enzyme-Linked Immunosorbent Assay (phosphorylation of GST-p53 (1-101) peptide); format: biochemical; settings: ELISA, 20 μM ATP
In short: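 ELISA with plate-bound GST-p53 (1-101) phosphorylated by DNA-PK (0.1 μg/mL final) with 20 μM ATP for 1 h at 25 °C. Compounds tested over 10 3-fold doses from 100 nM top final. Phospho-p53 Ser15 detected by antibody, HRP and TMB, absorbance at 450 nm.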

Chain of ATM (Q13315 whole entry): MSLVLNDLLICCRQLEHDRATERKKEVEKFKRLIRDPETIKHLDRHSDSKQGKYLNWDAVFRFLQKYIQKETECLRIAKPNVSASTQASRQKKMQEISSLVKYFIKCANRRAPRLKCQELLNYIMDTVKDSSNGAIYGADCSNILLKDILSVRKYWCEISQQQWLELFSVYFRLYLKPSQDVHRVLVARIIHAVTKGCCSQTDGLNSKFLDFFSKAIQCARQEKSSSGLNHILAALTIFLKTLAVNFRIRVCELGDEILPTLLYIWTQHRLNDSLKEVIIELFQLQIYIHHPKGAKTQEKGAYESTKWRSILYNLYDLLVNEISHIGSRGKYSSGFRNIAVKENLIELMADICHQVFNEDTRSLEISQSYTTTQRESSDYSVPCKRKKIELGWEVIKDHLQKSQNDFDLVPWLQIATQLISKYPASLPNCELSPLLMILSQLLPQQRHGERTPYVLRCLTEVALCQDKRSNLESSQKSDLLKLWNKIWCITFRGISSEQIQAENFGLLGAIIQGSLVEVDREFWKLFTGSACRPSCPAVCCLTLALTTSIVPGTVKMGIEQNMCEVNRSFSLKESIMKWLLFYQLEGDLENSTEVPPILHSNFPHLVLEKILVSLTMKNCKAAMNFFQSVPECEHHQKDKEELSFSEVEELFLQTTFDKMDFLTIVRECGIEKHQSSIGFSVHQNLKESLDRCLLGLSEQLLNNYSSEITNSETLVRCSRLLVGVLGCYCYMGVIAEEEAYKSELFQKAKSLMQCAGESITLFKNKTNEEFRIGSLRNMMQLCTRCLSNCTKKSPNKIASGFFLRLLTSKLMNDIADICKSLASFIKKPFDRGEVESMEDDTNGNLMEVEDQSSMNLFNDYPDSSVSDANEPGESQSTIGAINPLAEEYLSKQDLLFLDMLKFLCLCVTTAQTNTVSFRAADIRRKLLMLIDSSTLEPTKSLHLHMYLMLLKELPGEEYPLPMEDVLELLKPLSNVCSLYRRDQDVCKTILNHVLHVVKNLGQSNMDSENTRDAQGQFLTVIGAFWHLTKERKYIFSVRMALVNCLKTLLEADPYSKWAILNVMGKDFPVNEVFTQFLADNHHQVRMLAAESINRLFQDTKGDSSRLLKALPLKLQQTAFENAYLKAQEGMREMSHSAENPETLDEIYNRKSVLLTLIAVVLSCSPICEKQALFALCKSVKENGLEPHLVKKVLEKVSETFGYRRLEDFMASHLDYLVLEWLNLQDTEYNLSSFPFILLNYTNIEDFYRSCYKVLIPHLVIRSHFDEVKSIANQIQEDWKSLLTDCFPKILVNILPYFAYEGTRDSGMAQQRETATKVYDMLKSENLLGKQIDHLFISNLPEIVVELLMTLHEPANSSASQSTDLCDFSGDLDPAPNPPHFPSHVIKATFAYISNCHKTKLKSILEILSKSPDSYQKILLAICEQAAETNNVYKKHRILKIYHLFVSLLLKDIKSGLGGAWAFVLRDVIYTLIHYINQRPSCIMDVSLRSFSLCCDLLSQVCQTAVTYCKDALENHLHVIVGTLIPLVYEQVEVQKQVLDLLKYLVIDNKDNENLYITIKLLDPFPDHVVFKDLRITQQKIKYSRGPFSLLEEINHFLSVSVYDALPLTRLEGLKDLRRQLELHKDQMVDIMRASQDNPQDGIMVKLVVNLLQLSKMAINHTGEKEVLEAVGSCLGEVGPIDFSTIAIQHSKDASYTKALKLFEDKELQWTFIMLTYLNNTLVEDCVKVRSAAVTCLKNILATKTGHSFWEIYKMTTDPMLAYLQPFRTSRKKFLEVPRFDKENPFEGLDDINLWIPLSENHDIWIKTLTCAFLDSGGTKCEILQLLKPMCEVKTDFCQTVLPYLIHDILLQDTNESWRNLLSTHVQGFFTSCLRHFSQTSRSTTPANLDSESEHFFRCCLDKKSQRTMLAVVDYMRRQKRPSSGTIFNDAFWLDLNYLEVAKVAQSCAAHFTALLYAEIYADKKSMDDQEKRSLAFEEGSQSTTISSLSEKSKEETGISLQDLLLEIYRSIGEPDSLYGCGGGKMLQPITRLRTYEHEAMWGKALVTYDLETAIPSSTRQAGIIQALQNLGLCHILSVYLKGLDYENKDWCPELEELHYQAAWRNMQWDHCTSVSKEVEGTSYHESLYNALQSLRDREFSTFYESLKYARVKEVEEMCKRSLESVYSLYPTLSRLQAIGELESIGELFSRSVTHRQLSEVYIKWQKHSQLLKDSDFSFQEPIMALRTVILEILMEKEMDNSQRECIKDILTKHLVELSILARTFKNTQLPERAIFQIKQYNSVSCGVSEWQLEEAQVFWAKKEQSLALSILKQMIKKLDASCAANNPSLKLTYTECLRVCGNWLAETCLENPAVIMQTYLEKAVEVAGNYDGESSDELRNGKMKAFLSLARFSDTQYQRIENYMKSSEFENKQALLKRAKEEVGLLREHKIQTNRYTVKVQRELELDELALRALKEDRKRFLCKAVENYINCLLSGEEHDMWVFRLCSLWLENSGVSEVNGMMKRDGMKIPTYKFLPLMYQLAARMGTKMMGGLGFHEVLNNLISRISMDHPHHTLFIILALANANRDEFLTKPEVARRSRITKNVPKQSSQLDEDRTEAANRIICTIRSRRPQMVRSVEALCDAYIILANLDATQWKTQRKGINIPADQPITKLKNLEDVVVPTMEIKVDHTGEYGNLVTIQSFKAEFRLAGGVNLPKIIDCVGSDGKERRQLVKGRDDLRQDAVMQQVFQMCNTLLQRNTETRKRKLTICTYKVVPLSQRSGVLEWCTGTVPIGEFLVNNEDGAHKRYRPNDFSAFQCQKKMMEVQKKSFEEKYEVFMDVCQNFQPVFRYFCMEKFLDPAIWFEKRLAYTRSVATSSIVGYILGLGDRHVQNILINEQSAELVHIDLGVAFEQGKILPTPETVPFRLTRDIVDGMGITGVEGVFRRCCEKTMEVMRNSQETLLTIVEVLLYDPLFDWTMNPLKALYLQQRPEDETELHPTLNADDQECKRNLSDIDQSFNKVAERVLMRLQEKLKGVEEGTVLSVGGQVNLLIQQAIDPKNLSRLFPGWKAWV

Structure (SMILES): CC(C)NCCOc1ncc(-c2cc3c4c(cnc3cc2F)N(C)C(=O)C42CN(c3ccc(C(F)(F)F)cc3)C2)cc1NS(C)(=O)=O [Example 536, N-(5-(7′-Fluoro-3′-methyl-2′-oxo-1-(4-(trifluoromethyl)phenyl)-2′,3′-dihydrospiro[azetidine-3,1′-pyrrolo[2,3-c]quinolin]-8′-yl)-2-(2-(isopropylamino)ethoxy)pyridin-3-yl)methanesulfonamide hydrochloride]
- IC50 (ATM): 1 to 100 nM
- IC50 (DNA-PK): 1 to 100 nM

Structure (SMILES): CC(C)NCCOc1ncc(-c2cc3c4c(cnc3cc2F)N(C)C(=O)C42CN(c3ccc(F)cc3)C2)cc1NS(C)(=O)=O [Example 538, N-(5-(7′-Fluoro-1-(4-fluorophenyl)-3′-methyl-2′-oxo-2′,3′-dihydrospiro [azetidine-3,1′-pyrrolo[2,3-c]quinolin]-8′-yl)-2-(2-(isopropylamino)ethoxy)pyridin-3-yl)methanesulfonamide hydrochloride]
- IC50 (ATM): 1 to 100 nM
- IC50 (DNA-PK): 1 to 100 nM

Structure (SMILES): CC(C)NCCOc1ncc(-c2cc3c4c(cnc3cc2F)N(C)C(=O)C42CN(c3cccc(F)c3)C2)cc1NS(C)(=O)=O [Example 539, N-(5-(7′-Fluoro-1-(3-fluorophenyl)-3′-methyl-2′-oxo-2′,3′-dihydrospiro[azetidine-3,1′-pyrrolo[2,3-c]quinolin]-8′-yl)-2-(2-(isopropylamino)ethoxy)pyridin-3-yl)methanesulfonamide]
- IC50 (ATM): 1 to 100 nM
- IC50 (DNA-PK): < 0.5 nM

Structure (SMILES): CC(C)NCCOc1ncc(-c2cc3c4c(cnc3cc2F)N(C)C(=O)C42CN(c3ccccc3F)C2)cc1NS(C)(=O)=O [Example 540, N-(5-(7′-Fluoro-1-(2-fluorophenyl)-3′-methyl-2′-oxo-2′,3′-dihydrospiro [azetidine-3,1′-pyrrolo[2,3-c]quinolin]-8′-yl)-2-(2-(isopropylamino)ethoxy)pyridin-3-yl)methanesulfonamide]
- IC50 (ATM): 1 to 100 nM
- IC50 (DNA-PK): < 0.5 nM

Structure (SMILES): CC(C)NCCOc1ncc(-c2cc3c4c(cnc3cc2F)N(C)C(=O)C42CN(c3ccc(OC(F)(F)F)cc3)C2)cc1NS(C)(=O)=O [Example 541, N-(5-(7′-Fluoro-3′-methyl-2′-oxo-1-(4-(trifluoromethoxy)phenyl)-2′,3′-dihydrospiro[azetidine-3,1′-pyrrolo[2,3-c]quinolin]-8′-yl)-2-(2-(isopropylamino)ethoxy)pyridin-3-yl)methanesulfonamide]
- IC50 (ATM): 1 to 100 nM
- IC50 (DNA-PK): 1 to 100 nM

Structure (SMILES): CC(C)NCCOc1ncc(-c2cc3c4c(cnc3cc2F)N(C)C(=O)C42CN(c3ccc(-c4ccccc4)cc3)C2)cc1NS(C)(=O)=O [Example 543, N-(5-(1-([1,1′-Biphenyl]-4-yl)-7′-fluoro-3′-methyl-2′-oxo-2′,3′-dihydrospiro[azetidine-3,1′-pyrrolo[2,3-c]quinolin]-8′-yl)-2-(2-(isopropylamino)ethoxy)pyridin-3-yl)methanesulfonamide]
- IC50 (ATM): 1 to 100 nM
- IC50 (DNA-PK): 1 to 100 nM

Structure (SMILES): CC(C)NCCOc1ncc(-c2cc3c4c(cnc3cc2F)N(C)C(=O)C42CN(c3ccc4c(c3)OCO4)C2)cc1NS(C)(=O)=O [Example 544, N-(5-(1-(Benzo[d][1,3]dioxol-5-yl)-7′-fluoro-3′-methyl-2′-oxo-2′,3′-dihydrospiro[azetidine-3,1′-pyrrolo[2,3-c]quinolin]-8′-yl)-2-(2-(isopropylamino)ethoxy)pyridin-3-yl)methanesulfonamide]
- IC50 (ATM): 1 to 100 nM
- IC50 (DNA-PK): < 0.5 nM

Structure (SMILES): CC(C)NCCOc1ncc(-c2cc3c4c(cnc3cc2F)N(C)C(=O)C42CN(c3ccc4c(c3)OCCO4)C2)cc1NS(C)(=O)=O [Example 545, N-(5-(1-(2,3-Dihydrobenzo[b][1,4]dioxin-6-yl)-7′-fluoro-3′-methyl-2′-oxo-2′,3′-dihydrospiro[azetidine-3,1′-pyrrolo[2,3-c]quinolin]-8′-yl)-2-(2-(isopropylamino)ethoxy)pyridin-3-yl)methanesulfonamide]
- IC50 (ATM): 1 to 100 nM
- IC50 (DNA-PK): 0.5 to 1 nM

Structure (SMILES): CN(C)CCCOc1ncc(-c2ccc3ncc4c(c3c2)C2(CC(F)(F)C2)C(=O)N4C)cc1NS(C)(=O)=O [Example 554, N-(5-(3,3-Difluoro-3′-methyl-2′-oxo-2′,3′-dihydrospiro[cyclobutane-1,1′-pyrrolo[2,3-c]quinolin]-8′-yl)-2-(3-(dimethylamino)propoxy)pyridin-3-yl)methanesulfonamide]
- IC50 (ATM): 1 to 100 nM
- IC50 (DNA-PK): 1 to 100 nM
